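Growth conditions: 96-well plates. Treatment: test compound, 48 hours, 5 concentrations. Analysis: linear interpolation between bracketing concentrations; unreached endpoints set to highest concentration. At the TGI there is no net growth.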
Assays:
Assay in all cases: NCI tumour cell line growth inhibition, 48 h
DMS 273 small cell lung = tested on: DMS 273 small cell lung
HCT-116 colon = tested on: HCT-116 colon
KM20L2 colon = tested on: KM20L2 colon
A498 renal = tested on: A498 renal
HCT-15 colon = tested on: HCT-15 colon
ACHN renal = tested on: ACHN renal
COLO 205 colon = tested on: COLO 205 colon
A549 NSCLC = tested on: A549 NSCLC
SNB-75 CNS = tested on: SNB-75 CNS
LXFL 529 NSCLC = tested on: LXFL 529 NSCLC
KM12 colon = tested on: KM12 colon
CCRF-CEM leukemia = tested on: CCRF-CEM leukemia
HOP-62 NSCLC = tested on: HOP-62 NSCLC
SN12C renal = tested on: SN12C renal
SF-268 CNS = tested on: SF-268 CNS
NCI-H226 lung = tested on: NCI-H226 lung
NCI-H23 lung = tested on: NCI-H23 lung
UACC-257 melanoma = tested on: UACC-257 melanoma
HCC-2998 colon = tested on: HCC-2998 colon
SK-MEL-28 melanoma = tested on: SK-MEL-28 melanoma
DMS 114 small cell lung = tested on: DMS 114 small cell lung
SF-295 CNS = tested on: SF-295 CNS
OVCAR-5 ovarian = tested on: OVCAR-5 ovarian
HOP-18 NSCLC = tested on: HOP-18 NSCLC
786-0 renal = tested on: 786-0 renal
SK-MEL-2 melanoma = tested on: SK-MEL-2 melanoma
K-562 leukemia = tested on: K-562 leukemia
OVCAR-3 ovarian = tested on: OVCAR-3 ovarian
SK-MEL-5 melanoma = tested on: SK-MEL-5 melanoma
UACC-62 melanoma = tested on: UACC-62 melanoma
OVCAR-8 ovarian = tested on: OVCAR-8 ovarian
NCI-H522 lung = tested on: NCI-H522 lung
U251 CNS = tested on: U251 CNS
XF 498 CNS = tested on: XF 498 CNS
NCI-H460 lung = tested on: NCI-H460 lung
LOX IMVI melanoma = tested on: LOX IMVI melanoma
HT29 colon = tested on: HT29 colon
RPMI-8226 leukemia = tested on: RPMI-8226 leukemia
DLD-1 colon = tested on: DLD-1 colon
RXF 393 renal = tested on: RXF 393 renal
SR leukemia = tested on: SR leukemia
M14 melanoma = tested on: M14 melanoma
HL-60(TB) leukemia = tested on: HL-60(TB) leukemia
SNB-78 CNS = tested on: SNB-78 CNS
SK-OV-3 ovarian = tested on: SK-OV-3 ovarian
IGROV1 ovarian = tested on: IGROV1 ovarian
UO-31 renal = tested on: UO-31 renal
TK-10 renal = tested on: TK-10 renal
MOLT-4 leukemia = tested on: MOLT-4 leukemia
EKVX NSCLC = tested on: EKVX NSCLC
MALME-3M melanoma = tested on: MALME-3M melanoma
M19-MEL melanoma = tested on: M19-MEL melanoma

Measured: TGI

O=C(NNC(=O)c1cc(/C=C/c2cccc([N+](=O)[O-])c2)[nH]c(=S)n1)Nc1ccc(Cl)cc1
97.4 µM: DMS 114 small cell lung
81.8 µM: NCI-H522 lung
51.2 µM: CCRF-CEM leukemia
84.1 µM: HL-60(TB) leukemia
30.2 µM: U251 CNS
72 µM: MOLT-4 leukemia
52.9 µM: RPMI-8226 leukemia
81.4 µM: XF 498 CNS
60.9 µM: HCT-116 colon
47.8 µM: DLD-1 colon
9.76 µM: SR leukemia
37.2 µM: COLO 205 colon
37.3 µM: LOX IMVI melanoma
> 100 µM: all other assays above
